# Reference: ChEMBL document CHEMBL5303573, “Mapping human microbiome drug metabolism by gut bacteria and their genes” (Nature, 2019)
# Tested on: not listed separately
# Assay: The drug is tested on the gut metagenome community of MV15 with ENA study accession number: PRJEB31790 and ENA sample accession number: SAMEA5537496 for biotransformation. The drug concentrations were measured over 9 timepoints collected between 0 and 24 hours of incubation by liquid-chromatography-coupled mass spectrometry (LC–MS)
# Format: ADME
# Set-up: dose 2 uM, timepoint 0, 1, 2, 4, 6, 8, 12, 18, 24 hours
# Conditions: 2 µM
row,SMILES,Bacterial Biotransformation
1,CC(=O)OCC(CCn1cnc2cnc(N)nc21)COC(C)=O [FAMCICLOVIR],Compound metabolized
2,C#C[C@]1(OC(C)=O)CC[C@H]2[C@@H]3CCC4=CC(=O)CC[C@@H]4[C@H]3CC[C@@]21C [NORETHINDRONE ACETATE],Compound metabolized
3,COc1ccc([C@@H]2Sc3ccccc3N(CCN(C)C)C(=O)[C@@H]2OC(C)=O)cc1 [DILTIAZEM],Compound NOT metabolized

# Tested on: not listed separately
# Assay: The drug is tested on Salmonella typhimurium strain: LT2 for biotransformation. The drug concentrations were measured before and after a 12-h incubation by liquid-chromatography-coupled mass spectrometry (LC–MS)
# Conditions: salmonella enterica subsp. enterica, 2 µM
row,SMILES,Bacterial Biotransformation
1,CC(CCc1ccccc1)NCC(O)c1ccc(O)c(C(N)=O)c1 (centres undefined) [LABETALOL],Compound NOT metabolized
2,C#C[C@]1(OC(C)=O)CC[C@H]2[C@@H]3CCC4=C/C(=N/O)CC[C@@H]4[C@H]3CC[C@@]21CC [NORGESTIMATE],Compound NOT metabolized
3,CN1[C@@H]2CC[C@H]1C[C@@H](OC(=O)C(CO)c1ccccc1)C2 (some centres undefined) [ATROPINE],Compound NOT metabolized
4,COC(=O)Nc1nc2ccc(C(=O)c3ccccc3)cc2[nH]1 [MEBENDAZOLE],Compound NOT metabolized
5,COc1ccc2cc([C@H](C)C(=O)O)ccc2c1 [NAPROXEN],Compound NOT metabolized

# Biological target: T1, SGNH hydrolase-type esterase domain-containing protein (Phocaeicola dorei, UniProt B6VTE7)
# T1 sequence (B6VTE7 whole entry): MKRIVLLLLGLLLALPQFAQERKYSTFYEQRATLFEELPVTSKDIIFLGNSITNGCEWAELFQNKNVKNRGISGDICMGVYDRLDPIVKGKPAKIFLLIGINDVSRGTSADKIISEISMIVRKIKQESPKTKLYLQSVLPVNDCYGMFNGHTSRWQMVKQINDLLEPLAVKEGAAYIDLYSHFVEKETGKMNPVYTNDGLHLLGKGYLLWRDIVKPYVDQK
# Assay: (§1) The drug is tested on Bacteroides dorei strain: DSM17855 for biotransformation. The drug concentrations were measured before and after a 12-h incubation by liquid-chromatography-coupled mass spectrometry (LC–MS)
# Format: ADME
# Set-up: dose 2 uM
# Conditions: 2 µM
row,SMILES,Bacterial Biotransformation
1,C#C[C@]1(O)CC[C@H]2[C@@H]3CCC4=CC(=O)CC[C@@H]4[C@H]3CC[C@@]21CC [LEVONORGESTREL],Compound NOT metabolized
2,CC(=O)OCC(CCn1cnc2cnc(N)nc21)COC(C)=O [FAMCICLOVIR],Compound metabolized
3,C#C[C@]1(OC(C)=O)CC[C@H]2[C@@H]3CCC4=CC(=O)CC[C@@H]4[C@H]3CC[C@@]21C [NORETHINDRONE ACETATE],Compound NOT metabolized
4,COc1ccc([C@@H]2Sc3ccccc3N(CCN(C)C)C(=O)[C@@H]2OC(C)=O)cc1 [DILTIAZEM],Compound NOT metabolized

# Biological target: T2, SGNH hydrolase-type esterase domain-containing protein (Phocaeicola dorei, UniProt B6W293)
# T2 sequence (B6W293 whole entry): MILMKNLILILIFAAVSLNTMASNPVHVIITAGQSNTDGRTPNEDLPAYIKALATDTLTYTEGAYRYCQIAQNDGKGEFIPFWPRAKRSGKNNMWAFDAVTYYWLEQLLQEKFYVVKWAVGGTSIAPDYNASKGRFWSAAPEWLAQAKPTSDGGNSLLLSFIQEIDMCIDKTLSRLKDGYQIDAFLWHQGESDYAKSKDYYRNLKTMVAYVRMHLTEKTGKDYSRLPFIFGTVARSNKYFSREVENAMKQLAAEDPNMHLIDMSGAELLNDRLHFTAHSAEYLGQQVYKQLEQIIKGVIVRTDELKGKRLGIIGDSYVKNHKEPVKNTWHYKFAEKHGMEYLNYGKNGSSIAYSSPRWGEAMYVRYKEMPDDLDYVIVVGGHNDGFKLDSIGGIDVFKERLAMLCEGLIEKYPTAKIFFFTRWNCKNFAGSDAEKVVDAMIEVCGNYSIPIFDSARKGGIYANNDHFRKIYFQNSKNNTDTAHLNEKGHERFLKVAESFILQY
# Assay: as §1
# Format: ADME
# Set-up: dose 2 uM
# Conditions: 2 µM
row,SMILES,Bacterial Biotransformation
1,C#C[C@]1(O)CC[C@H]2[C@@H]3CCC4=CC(=O)CC[C@@H]4[C@H]3CC[C@@]21CC [LEVONORGESTREL],Compound NOT metabolized
2,CC(=O)OCC(CCn1cnc2cnc(N)nc21)COC(C)=O [FAMCICLOVIR],Compound metabolized
3,C#C[C@]1(OC(C)=O)CC[C@H]2[C@@H]3CCC4=CC(=O)CC[C@@H]4[C@H]3CC[C@@]21C [NORETHINDRONE ACETATE],Compound NOT metabolized
4,COc1ccc([C@@H]2Sc3ccccc3N(CCN(C)C)C(=O)[C@@H]2OC(C)=O)cc1 [DILTIAZEM],Compound NOT metabolized

# Biological target: T3, Steroid 5-alpha reductase C-terminal domain-containing protein (Phocaeicola dorei, UniProt B6W0N3)
# T3 sequence (B6W0N3 whole entry): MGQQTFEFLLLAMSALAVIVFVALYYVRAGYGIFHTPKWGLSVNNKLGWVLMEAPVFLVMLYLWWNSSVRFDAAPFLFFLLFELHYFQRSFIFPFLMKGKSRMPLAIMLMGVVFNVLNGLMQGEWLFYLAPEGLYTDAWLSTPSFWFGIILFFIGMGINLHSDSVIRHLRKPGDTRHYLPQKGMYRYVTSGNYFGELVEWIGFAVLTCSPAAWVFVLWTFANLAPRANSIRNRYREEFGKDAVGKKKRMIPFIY
# Assay: as §1
# Format: ADME
# Set-up: dose 2 uM
# Conditions: 2 µM
row,SMILES,Bacterial Biotransformation
1,C#C[C@]1(O)CC[C@H]2[C@@H]3CCC4=CC(=O)CC[C@@H]4[C@H]3CC[C@@]21CC [LEVONORGESTREL],Compound metabolized
2,CC(=O)OCC(CCn1cnc2cnc(N)nc21)COC(C)=O [FAMCICLOVIR],Compound NOT metabolized
3,C#C[C@]1(OC(C)=O)CC[C@H]2[C@@H]3CCC4=CC(=O)CC[C@@H]4[C@H]3CC[C@@]21C [NORETHINDRONE ACETATE],Compound metabolized
4,COc1ccc([C@@H]2Sc3ccccc3N(CCN(C)C)C(=O)[C@@H]2OC(C)=O)cc1 [DILTIAZEM],Compound NOT metabolized
5,CC(=O)OCC(=O)[C@@]1(OC(C)=O)[C@@H](C)C[C@H]2[C@@H]3C[C@H](F)C4=CC(=O)C=C[C@]4(C)[C@@]3(F)[C@@H](O)C[C@@]21C [DIFLORASONE DIACETATE],Compound NOT metabolized

# Biological target: T4, Acyltransferase 3 domain-containing protein (Phocaeicola dorei, UniProt B6W2J3)
# T4 sequence (B6W2J3 whole entry): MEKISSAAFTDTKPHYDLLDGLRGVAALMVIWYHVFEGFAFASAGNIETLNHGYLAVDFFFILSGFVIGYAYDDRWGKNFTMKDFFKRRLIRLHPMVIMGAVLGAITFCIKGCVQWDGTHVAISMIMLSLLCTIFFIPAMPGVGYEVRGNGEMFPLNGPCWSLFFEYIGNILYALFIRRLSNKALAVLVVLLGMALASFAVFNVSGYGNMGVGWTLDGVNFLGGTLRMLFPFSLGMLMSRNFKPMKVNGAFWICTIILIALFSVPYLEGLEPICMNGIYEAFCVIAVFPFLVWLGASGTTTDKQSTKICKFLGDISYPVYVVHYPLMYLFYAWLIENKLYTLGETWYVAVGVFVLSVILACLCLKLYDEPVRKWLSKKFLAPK
# Assay: as §1
# Format: ADME
# Set-up: dose 2 uM
# Conditions: 2 µM
row,SMILES,Bacterial Biotransformation
1,C#C[C@]1(O)CC[C@H]2[C@@H]3CCC4=CC(=O)CC[C@@H]4[C@H]3CC[C@@]21CC [LEVONORGESTREL],Compound NOT metabolized
2,CC(=O)OCC(CCn1cnc2cnc(N)nc21)COC(C)=O [FAMCICLOVIR],Compound NOT metabolized
3,C#C[C@]1(OC(C)=O)CC[C@H]2[C@@H]3CCC4=CC(=O)CC[C@@H]4[C@H]3CC[C@@]21C [NORETHINDRONE ACETATE],Compound NOT metabolized
4,COc1ccc([C@@H]2Sc3ccccc3N(CCN(C)C)C(=O)[C@@H]2OC(C)=O)cc1 [DILTIAZEM],Compound NOT metabolized
5,CC(=O)OCC(=O)[C@@]1(OC(C)=O)[C@@H](C)C[C@H]2[C@@H]3C[C@H](F)C4=CC(=O)C=C[C@]4(C)[C@@]3(F)[C@@H](O)C[C@@]21C [DIFLORASONE DIACETATE],Compound NOT metabolized

# Tested on: not listed separately
# Assay: The drug is tested on the gut metagenome community of MV05 with ENA study accession number: PRJEB31790 and ENA sample accession number: SAMEA5537486 for biotransformation. The drug concentrations were measured over 9 timepoints collected between 0 and 24 hours of incubation by liquid-chromatography-coupled mass spectrometry (LC–MS)
# Format: ADME
# Set-up: dose 2 uM, timepoint 0, 1, 2, 4, 6, 8, 12, 18, 24 hours
# Conditions: 2 µM
row,SMILES,Bacterial Biotransformation
1,CC(=O)OCC(CCn1cnc2cnc(N)nc21)COC(C)=O [FAMCICLOVIR],Compound metabolized
2,C#C[C@]1(OC(C)=O)CC[C@H]2[C@@H]3CCC4=CC(=O)CC[C@@H]4[C@H]3CC[C@@]21C [NORETHINDRONE ACETATE],Compound metabolized
3,COc1ccc([C@@H]2Sc3ccccc3N(CCN(C)C)C(=O)[C@@H]2OC(C)=O)cc1 [DILTIAZEM],Compound NOT metabolized

# Tested on: not listed separately
# Assay: The drug is tested on Proteus penneri strain: ATCC35198 for biotransformation. The drug concentrations were measured before and after a 12-h incubation by liquid-chromatography-coupled mass spectrometry (LC–MS)
# Conditions: 2 µM
row,SMILES,Bacterial Biotransformation
1,C#C[C@]1(OC(C)=O)CC[C@H]2[C@@H]3CCC4=C/C(=N/O)CC[C@@H]4[C@H]3CC[C@@]21CC [NORGESTIMATE],Compound NOT metabolized
2,CN1[C@@H]2CC[C@H]1C[C@@H](OC(=O)C(CO)c1ccccc1)C2 (some centres undefined) [ATROPINE],Compound NOT metabolized
3,COC(=O)Nc1nc2ccc(C(=O)c3ccccc3)cc2[nH]1 [MEBENDAZOLE],Compound NOT metabolized
4,Cc1ccc(NC(=O)c2ccc(CN3CCN(C)CC3)cc2)cc1Nc1nccc(-c2cccnc2)n1 [IMATINIB],Compound NOT metabolized
5,O=C(CCCN1CCC(O)(c2ccc(Cl)cc2)CC1)c1ccc(F)cc1 [HALOPERIDOL],Compound NOT metabolized
